This note sets out measurements from patent US20100035297A1, “METHODS AND COMPOSITIONS FOR VASCULOGENIC POTENTIAL DETERMINATION” (INDIANA UNIVERSITY RESEARCH AND TECHNOLOGY CORPORATION, priority 2008, published 2010).

Common to all, as to type: cell-based, human
The subject of experiment [1] is vascular network formation by EC on ASC monolayer. The experiment in a line: Vascular network formation (VNF) in EC-ASC co-culture. The following applies: 6 days. The procedure: Medium with the same supplements were exchange at day 3. At day 6, wells with the co-cultures were fixed with methanol, stained for human CD31 antigen; 5-9 pictures/well at 4× were taken under fluorescent microscope and were analyzed for total tube length and branch points.
Co-culture of EC and ASC: ASCs were plated on culture plastic at a density of 60×10^3 cells/cm^2 in EBM-2/5% FBS media. In most experiments, ASCs were allowed to attach to the plates for three hours and then ECs from the indicated sources were plated on the top of ASC monolayer at densities ranging from 625 to 10,000 cells/cm^2. Cells were cultured in EBM-2/5% FBS for six days with media change at day 3. In a separate set of experiments, ASCs at 60×10^3 cells/cm^2 and CBD-ECs at 5×10^3 cells/cm^2 were premixed in EBM-2/5% FBS prior to plating.
In experiments assessing the role of various factors on EC-ASC interactions, co-cultures were incubated for 6 days in EBM-2/5% FBS media supplemented with: (1) neutralizing IgGs to: VEGF (RnD Systems, 2 μg/ml), HGF (RnD Systems, 2 μg/ml) or corresponding control mouse and goat IgGs (RnD Systems); (2) 10 μM GM6001 (Millipore, Billerica, Mass.), an inhibitor of MMP activity with a wide range of activity; (3) 50 μM AG1296 (Alexis, San Diego, Calif.), an inhibitor of PDGF receptor β activity; (4) and DMSO, which was used to dilute GM6001 and AG1296, as a negative control. Test cultures were exposed to the varying media conditions for six days.
(§1) Co-culture of ECs on ASC, NHDF and smooth muscle cell monolayers: Either ASCs, NHDFs, CASMCs, or AoSMCs were plated at a density of 60×10^3 cells/cm^2 in EBM-2/5% FBS media, three hours prior to overlaying them with 5×10^3 cells/cm^2 of CBD-ECs as previously described. The mixed cultures were incubated for six days with a routine media change at day 3. In experiments evaluating the effect of ASC conditioned media (ASC-CM) or added growth factors on vascular network formation, cells were cultured in EBM-2/5% FBS media that was either premixed with ASC-CM at a 1:1 ratio or supplemented with VEGF or HGF (10 ng/ml) as single growth factor controls. To generate ASC-CM, ASCs were grown to confluence in EGM-2mv in T75 flasks, followed by media replacement with EBM-2/5% FBS. After one day, 10 ml fresh EBM-2/5% FBS media was applied and removed after 72 hours conditioning. ASC-CM was collected, centrifuged at 300 g for five minutes, and supernatants frozen at 80° C. Cell number at the time of media collection was determined using hemocytometer.

The next experiment relates to ASCs. In words: hASC mitogenic response to individual growth factors. The settings on record: factor added to basal medium, 10 pg to 10 ng, 4 days. As to the method: Evaluation of hASC Mitogenic Response to Individual Growth Factors: Freshly isolated ASCs were adhered on cell culture plastic for 2 days before harvesting attached cells with 0.05% trypsin/EDTA. Cells were seeded at 3×10^3 cells/cm^2 in 12-well plates and allowed to attach overnight in EBM-2/5% FBS medium, which was then replaced with EBM-2/5% FBS alone (control) or EBM-2/5% FBS supplemented with basic fibroblast growth factor (bFGF), epidermal growth factor (EGF), or platelet-derived growth factor (PDGF)-BB individually at final concentrations of 10 pg, 100 pg, 1 ng, or 10 ng each or the mixture of all of these, each at the specified concentration. Cells were cultured for 4 days, with a medium change after 48 hours, and then detached using 0.05% trypsin/EDTA, and viable cells were counted using a hemacytometer and trypan blue. Proliferation data are presented as the ratio of cells per well supplemented with growth factor to cells per well in control media.

The test system of another experiment is EC+CASMC co-culture. In words: VNF by ECs co-cultured on CASMC monolayer. The following applies: growth factor 10 ng/ml, 6 days; control 0.37±0.13. The procedure:
as §1

The subject of the next experiment is EC+fibroblast co-culture. The experiment in a line: VNF by ECs co-cultured on fibroblast (NHDF) monolayer. The following applies: growth factor 10 ng/ml, 6 days; control 0.54±0.1. As to the method: as §1

Take `COc1cc2ncc(-c3ccccc3)nc2cc1OC` [AG1296]: the total tube length in experiment [1] (50 μM, DMSO control 5.29±0.31) came to 1.07±0.14 mm/mm^2. Besides, the “degree of network branching” value in experiment [1] (50 μM, DMSO control 5.88±0.67) stood at 0.26±0.06 branches/mm^2.
In the case of `CNC(=O)[C@H](Cc1c[nH]c2ccccc12)NC(=O)[C@@H](CC(=O)NO)CC(C)C` [GM6001], the total tubes length in experiment [1] (10 μM, DMSO control 4.24±0.31) was 2.59±0.05 mm/mm^2. The “degree of network branching” value in experiment [1] (10 μM, DMSO control 5.86±0.79) came to 2.45±0.17 per mm^2.
With “EGF: epidermal growth factor (NSDSECPLSHDGYCLHDGVCMYIEALDKYACNCVVGYIGERCQYRDLKWWELR; UniProt P01133 971-1023, looked up)”, in the experiment with ASCs, the “effect on ASC proliferation” value is listed as “strong mitogenic effects”.
Turning to “HGF: hepatocyte growth factor, single growth factor supplement”, the total tube length in the experiment with EC+CASMC co-culture was 0.74±0.21 mm/mm^2; in the experiment on EC+fibroblast co-culture it was 1.0±0.02 mm/mm^2.
Consider VEGF, for which the total tube length is reported as 0.9±0.18 mm/mm^2 with EC+CASMC co-culture and 3.2±0.4 mm/mm^2 in the experiment with EC+fibroblast co-culture. The “increase of total tube length” value in experiment [1] (EC-ASC co-culture, growth factor 10 ng/ml, vs control media) is 76%.
bFGF: basic fibroblast growth factor: the “effect on ASC proliferation” value in the experiment with ASCs is listed as “strong mitogenic effects”.
